Like-named read-outs stand apart in the source and are kept apart here.
Assays:
[1] = in vivo, iv
[2] = system: COVID-19 (SARS-CoV2); assay: Example I, intravenous citrulline treatment of hospitalized Covid-19 patients; assay type: in vivo; conditions: intravenous bolus 20 mg/kg then 9 mg/kg per hour infusion up to 10 days
Procedure: Subjects hospitalized and requiring oxygen for an acute hypoxemic respiratory illness due to COVID-19 (SARS-CoV2) will be treated. In addition, subjects will receive standard supportive care for acute hypoxemic respiratory illness and failure. The assessment of efficacy will include collection of plasma for analysis of citrulline and arginine levels at 2 hours, 12 hours, and the alternating morning of study days. Optionally, samples may also be analyzed for D-dimer and angiopoietin-2 levels.
The assessment of efficacy will include collection of plasma for analysis of citrulline and arginine levels at 2 hours, 12 hours, and the alternating morning of hospitalization days. Additional efficacy measures will include clinical outcomes, including progression of acute lung injury and, lengths of hospital and ICU stay. The assessment of safety will include collection of hemodynamic measurements at least every 4 hours on a hospital unit.
Patients will receive an initial intravenous bolus of 20 mg/kg (to a maximum of 1500 mg) L-citrulline over 10 minutes. The infusion solution will be prepared as a 5% isotonic solution (50 mg/mL) in 5% dextrose water. […]
Participant survival will be assessed at hospital discharge. […] Hospital length of stay will be calculated as the number of days from admission to hospital discharge.

[3] = in vivo; cited from earlier work
[4] = cited from earlier work
[5] = Phase IB trial of intravenous L-citrulline versus placebo in children undergoing cardiopulmonary bypass (IND #66,261); assay type: in vivo
From the text: FIG. 1. Duration of mechanical ventilation therapy following cardiopulmonary bypass in citrulline treated and control patients.
FIG. 2. Duration of inotrope therapy following cardiopulmonary bypass in citrulline treated and control patients.
FIG. 3. Maximum of mechanical ventilation or inotrope therapy (surrogate for duration of ICU stay) following cardiopulmonary bypass in citrulline treated and control patients.
A recent study^39 carried out under IND #66,261 examined whether maintenance of plasma citrulline levels at steady state levels at or above 100 micromolar would prevent the occurrence of pulmonary complications of cardiopulmonary bypass in children undergoing congenital heart repair surgery. For pulmonary function, the endpoint was the post-operative duration of mechanical ventilation (see FIG. 1). Alternative endpoints included the duration of post-operative inotrope therapy (see FIG. 2) and the length of time in the intensive care unit (see FIG. 3).

[6] = human, in vivo; cited from earlier work
[7] = plasma citrulline 12 h postoperatively <37 μmol/L

In the case of `NC(=O)NCCC[C@H](N)C(=O)O` [citrulline, L-citrulline], the Drug-associated adverse events [1] is reported as “no drug-associated adverse events”, the “Length of time to an intubation event from the start of study infusion” value [2] is reported as “extend the length of time to an intubation event” and the “Total length of all mechanical ventilation, including non-invasive modalities” value [2] is reported as “reduce the total length of all mechanical ventilation”. For the same compound, the “half-life of citrulline in plasma” value [3] was “about 1 hour”, the “Pulmonary hypertension absent (number of patients)” value [4, 7] was 18 and the “Pulmonary hypertension present (number of patients)” value [4, 7] was 9. The “Pulmonary hypertension present (number of patients)” value ([4]; plasma citrulline 12 h postoperatively >37 μmol/L, P value .036) was “*0”, the “Pulmonary hypertension absent (number of patients)” value ([4]; plasma citrulline 12 h postoperatively >37 μmol/L) was 12 and the “Duration of mechanical ventilation therapy following cardiopulmonary bypass” value ([5]; citrulline treated vs control patients, Wilcoxon rank-sum p=0.0089, plasma citrulline at or above 100 micromolar) was “treated differs from control”. The “Duration of inotrope therapy following cardiopulmonary bypass” value ([5]; citrulline treated vs control patients, Wilcoxon rank-sum p=0.0351) was “treated differs from control”, the “Maximum of mechanical ventilation or inotrope therapy (surrogate for duration of ICU stay) following cardiopulmonary bypass” value ([5]; citrulline treated vs control patients, Wilcoxon rank-sum p=0.0479) was “treated differs from control” and the “Complications of cardiopulmonary bypass” value ([5]; plasma citrulline maintained at or above 100 micromolar, by time on mechanical ventilation and duration of inotrope therapy) was “prevented the complications of bypass”. The Adverse effects [6] was “no observed adverse effects”.

Source: US12064409B2, “Action of L-citrulline to prevent or treat endothelial dysfunction” (Asklepion Pharmaceuticals, LLC, priority 2021, dated 2024)
